Test results reported in the supplement of paper PMC10307832.

How the values were obtained:
Test in all cases: relative viability (nuclei count vs DMSO), 5 days (fraction); higher = more cells survive
[1] = compound: CC(=O)c1c(C)c2cnc(Nc3ccc(N4CCNCC4)cn3)nc2n(C2CCCC2)c1=O [Palbociclib]
Summary of the method: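 Five library-drug doses, separated by factors of √10, were pinned into 1536-well plates holding lung cancer cell lines after an overnight stay at 37 °C. Cells were fixed, permeabilised and Hoechst-stained in one step after 5 days without medium change, then imaged at 4×. Viability compares treated-well with vehicle-well nuclei, counted in MetaXpress, as a median across plates. Passing plates had control CV below 25% and at least one doubling.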

[2] = compound: CC(=O)c1c(C)c2cnc(Nc3ccc(N4CCNCC4)cn3)nc2n(C2CCCC2)c1=O [Palbociclib] + COc1cc2c(Oc3ccc(NC(=O)C4(C(=O)Nc5ccc(F)cc5)CC4)cc3F)ccnc2cc1OCCCN1CCOCC1 [Foretinib] (partner 0.25 µM)
Summary of the method: (§1)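 One day after seeding in 1536-well plates, lung cancer cell lines were dosed by pin tool. Dosing was either single-drug or a fixed anchor-drug dose plus five library-drug doses (not always all listed) in √10 steps. After 5 days, nuclei were stained in one fix-and-stain step and counted on 4× images, and relative viability is the nuclei count of treated wells over that of vehicle wells, given as the median of duplicate plates.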

[3] = compound: CC(=O)c1c(C)c2cnc(Nc3ccc(N4CCNCC4)cn3)nc2n(C2CCCC2)c1=O [Palbociclib] + Nc1nc2[nH]cc(CCc3ccc(C(=O)N[C@@H](CCC(=O)O)C(=O)O)cc3)c2c(=O)[nH]1 [Pemetrexed] (partner 0.2 µM)
Summary of the method: as §1

Row | Cell Line | relative viability ([1]; 0.01 µM) | relative viability ([1]; 0.03162 µM) | relative viability ([1]; 0.1 µM) | relative viability ([1]; 0.3162 µM) | relative viability ([1]; 0.5 µM, anchor plate) | relative viability ([1]; 1 µM) | relative viability ([2]; first compound 0.01 µM) | relative viability ([2]; first compound 0.03162 µM) | relative viability ([2]; first compound 0.1 µM) | relative viability ([2]; first compound 0.3162 µM) | relative viability ([2]; first compound 1 µM) | relative viability ([3]; first compound 0.01 µM) | relative viability ([3]; first compound 0.03162 µM) | relative viability ([3]; first compound 0.1 µM) | relative viability ([3]; first compound 0.3162 µM) | relative viability ([3]; first compound 1 µM)
1 | NCI-H838 | 1.06 | 0.833 | 0.761 | 0.816 | 0.232 | 0.353 | 1.03 | 0.955 | 0.71 | 0.823 | 0.515 | 0.354 | 0.234 | 0.242 | 0.29 | 0.18
2 | NCI-H1355 | 0.999 | 0.672 | 0.884 | 0.844 | 0.427 | 0.62 | 1.03 | 0.894 | 0.902 | 0.85 | 0.715 | 1.13 | 0.548 | 0.947 | 0.912 | 0.739
3 | NCI-H1395 | 1.01 | 0.825 | 0.797 | 0.858 | 0.647 | 0.597 | 0.867 | 0.876 | 0.846 | 0.828 | 0.713 | 0.797 | 0.812 | 0.786 | 0.838 | 0.65
4 | NCI-H1437 | 1.02 | 0.877 | 0.863 | 0.823 | 0.311 | 0.571 | 1.27 | 1.16 | 0.992 | 0.991 | 0.783 | 0.33 | 0.338 | 0.339 | 0.33 | 0.269
5 | NCI-H1563 | 0.988 | 0.896 | 0.85 | 0.869 | – | 0.853 | 0.972 | 0.89 | 0.821 | 0.853 | 0.8 | 0.836 | 0.729 | 0.746 | 0.795 | 0.629
6 | NCI-H1650 | 0.928 | 0.734 | 0.77 | 0.726 | 0.359 | 0.487 | 1.3 | 0.808 | 0.954 | 0.934 | 0.65 | 0.373 | 0.316 | 0.302 | 0.293 | 0.231
7 | NCI-H1651 | 0.967 | 0.971 | 0.986 | 0.971 | 0.537 | 0.772 | 0.882 | 0.819 | 0.779 | 0.747 | 0.613 | 0.572 | 0.563 | 0.562 | 0.511 | 0.394
8 | NCI-H1666 | 1 | 0.86 | 0.873 | 0.836 | 0.632 | 0.582 | 0.998 | 0.941 | 0.875 | 0.7 | 0.553 | 0.802 | 0.822 | 0.798 | 0.772 | 0.638
9 | NCI-H1734 | 0.951 | 0.592 | 0.75 | 0.659 | 0.345 | 0.538 | 0.831 | 0.683 | 0.608 | 0.686 | 0.503 | 0.423 | 0.466 | 0.404 | 0.407 | 0.4
10 | NCI-H1755 | 1.03 | 0.896 | 0.915 | 0.845 | 0.443 | 0.664 | 0.928 | 0.893 | 0.819 | 0.801 | 0.578 | 0.429 | 0.394 | 0.385 | 0.467 | 0.397
11 | NCI-H1793 | 1.02 | 0.54 | 0.77 | 0.682 | 0.325 | 0.327 | 0.689 | – | 0.713 | 0.617 | 0.355 | 0.975 | 0.653 | 0.676 | 0.617 | 0.339
12 | NCI-H1915 | 1.01 | 0.695 | 0.973 | 0.902 | 0.527 | 0.756 | 1.04 | 0.968 | 1.06 | 0.95 | 0.905 | 0.494 | – | 0.446 | 0.413 | 0.331
13 | NCI-H1944 | 0.971 | 0.762 | 0.886 | 0.885 | 0.345 | 0.532 | 0.915 | 0.807 | 0.768 | 0.756 | 0.577 | 0.598 | 0.57 | 0.589 | 0.477 | 0.367
14 | NCI-H1975 | 0.923 | 0.949 | 0.924 | 0.865 | 0.593 | 0.793 | 0.932 | 0.853 | 0.899 | 0.828 | 0.81 | 0.293 | 0.284 | 0.276 | 0.294 | 0.256
15 | NCI-H1993 | 1.05 | 0.882 | 0.726 | 0.69 | 0.658 | 0.67 | 0.815 | 0.633 | 0.671 | 0.627 | 0.52 | 0.681 | 0.649 | 0.482 | 0.512 | 0.54
16 | NCI-H2009 | 0.991 | 0.905 | 0.781 | 0.693 | 0.237 | 0.35 | 1.2 | 1 | 0.998 | 0.728 | 0.495 | 1.04 | 0.925 | 0.913 | 0.72 | 0.408
17 | NCI-H2023 | 0.913 | 0.773 | 0.694 | 0.625 | 0.392 | 0.4 | 0.929 | 0.523 | 0.556 | 0.474 | 0.322 | 0.203 | 0.188 | 0.169 | 0.174 | 0.142
